Laboratory results from patent EP3889262A1, “INHIBITION OF CASPASE-3 BY THE MICRORNA 126-5P” (Ludwig-Maximilians-Universität München, priority 2020, dated 2021).
Peptide text beside a SMILES is read from it. * marks the point of attachment. Cbz = O=C(OCc1ccccc1)*; CH2F = FC*

What was measured:
HUVECs = experiment: qPCR of miR-126 strand amounts and nucleo-cytoplasmic distribution in HUVECs; assay type: cell-based, human; details: for nuclear miR-126-5p: fractional qPCR, ivermectin with rapamycin, 3-methyladenine with KLF2 overexpression
Experimental: HUVECs were treated with rapamycin (Santa Cruz Biotechnology) at 5 µM, ivermectin (Santa Cruz Biotechnology) at […], 3-methyladenine (Sigma Aldrich) at 5 mM, and/or camptothecin (Abcam) at 500 nM. Unless stated otherwise, treatment was applied for 3 h to analyze early processes and to avoid activation of concomitant or compensatory mechanisms. RNA interference technology was applied to generate specific knockdowns with siRNA against ATG5, ATG7, Mex3a (Qiagen). Functional studies on miRNA function were carried with miScript miRNA mimics and inhibitors of miR-126-5p (Qiagen). Overexpression of KLF2 and Mex3a were obtained by pCMV-hKLF2 and pCMV-hMex3a plasmids. Transfections were performed by electroporation using Amaxa Nucleofector technology (Lonza) or Lipofectamine™ 2000 (ThermoFisher Scientific) according to the manufacturer's protocols.

recombinant caspase-3 = molecular target: T1, recombinant caspase-3 (Homo sapiens, UniProt P42574); experiment: Cell-free analysis of caspase-3 activity (substrate cleavage); assay type: biochemical; details: substrate cleavage by recombinant caspase-3, cell-free
T1 sequence (P42574 29-175 limits assumed): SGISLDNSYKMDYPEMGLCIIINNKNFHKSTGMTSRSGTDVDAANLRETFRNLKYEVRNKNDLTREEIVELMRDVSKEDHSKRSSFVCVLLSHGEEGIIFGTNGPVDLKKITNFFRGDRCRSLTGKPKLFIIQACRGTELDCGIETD
T1 sequence (P42574 176-277 limits assumed): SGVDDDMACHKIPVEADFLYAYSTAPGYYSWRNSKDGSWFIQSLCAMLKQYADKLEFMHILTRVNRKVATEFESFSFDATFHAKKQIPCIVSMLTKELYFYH

| Molecule | nuclear miR-126-5p (HUVECs) | further results |
| --- | --- | --- |
| ivermectin | prevented |  |
| Cn1cnc(N)c2ncnc1-2 [3-methyladenine] | blunted |  |
| COC(=O)C[C@H](NC(=O)[C@H](C)NC(=O)[C@@H](NC(=O)OCc1ccccc1)C(C)C)C(=O)CF [Z-VAD-FMK] (Cbz-Val-Ala-Asp(OMe)-CH2F) |  | IC50 (recombinant caspase-3): 75.9 µM |
| CO/C1=C\C(C)=C\[C@@H](C)[C@@H](O)[C@@H](C)C/C(C)=C/C=C/[C@H](OC)[C@@H]([C@@H](C)[C@@H](O)[C@H](C)[C@@]2(O)C[C@@H](O)[C@H](C)[C@@H](C(C)C)O2)OC1=O [bafilomycin] |  | amount of miR-126-3p (HUVECs; ECs): restored |
